Data reported in US9062284B2, “Uses and detection of herbicide resistance genes for resistance to aryloxyalkanoate herbicides” (Dow ArgoSciences LLC, priority 2007, dated 2015).

Tested on: PAT/Cry1F-transformed tobacco
Experiment: 2,4-D DMA response of PAT/Cry1F transformed control T0 tobacco
Assay type: in vivo, Nicotiana tabacum
Settings: 14 days after application
Text: Following the acclimation in the greenhouse T0 plants were then randomly assigned to various rates of 2,4-D DMA ranging from 140 to 2240 g ae/ha at […] increments. For tobacco, 140 g ae/ha 2,4-D is an effective dose to distinguish sensitive plants from ones with meaningful levels of resistance.

Structure (SMILES): CNC.O=C(O)COc1ccc(Cl)cc1Cl [2,4-D DMA]
- % Injury 20-40% (individuals) (140 g ae/ha): 1
- % Injury <20% (individuals) (140 g ae/ha): 0
- % Injury >40% (individuals) (140 g ae/ha): 2
- % Injury Ave (140 g ae/ha): 47.0%
- % Injury 20-40% (individuals) (560 g ae/ha): 0
- % Injury <20% (individuals) (560 g ae/ha): 0
- % Injury >40% (individuals) (560 g ae/ha): 3
- % Injury Ave (560 g ae/ha): 75.0%
- % Injury 20-40% (individuals) (2240 g ae/ha): 0
- % Injury <20% (individuals) (2240 g ae/ha): 0
- % Injury >40% (individuals) (2240 g ae/ha): 3
- % Injury Ave (2240 g ae/ha): 97.0%
